Patent US6748900B2, “Methods for growing and imprinting fish using an odorant” (MariCal, Inc., priority 2001, dated 2004)
“Also recorded” adds a separate entry of the source.

Tests used:
olfactory epithelium = assay: Olfactory nerve recording: PVCR agonists added to a repellant (finger rinse) or an attractant (L-alanine); type: in vivo, Atlantic salmon (Salmo salar); details: for effect on response of olfactory epithelium to mammalian finger rinse: FIG. 13
From the text: (§1) Physiol. A 127:157-166 (1975), and Hubbard, PC, et al., Olfactory sensitivity to changes in environmental Ca2+ in the marine teleost Sparus Aurata, J. Exp. Biol. 203:3821-3829 (2000). After anaesthetizing the fish, it was placed in V-clamp apparatus where its gills were irrigated continuously with aerated seawater and its nasal lamellae bathed continuously by a stream of distilled water via a tube held in position in the inhalant olfactory opening. The olfactory nerves of the fish were exposed by removal of overlying bony structures. Stimuli were delivered as boluses to the olfactory epithelium via a 3 way valve where 1 cc of water containing the stimulus was rapidly injected into the tube containing a continuously stream of distilled water. […] Using this experimental approach, stable and reproducible recordings could be obtained for up to 6 hr after the initial surgery on the fish.
The ablation of responses to both the PVCR agonists as shown in FIG. 12A as well as mammalian finger rinse indicate that there are some complex interactions between PVCR proteins and other odorant receptors. It is also extremely unlikely that inclusion of PVCR agonists removed all the stimulatory components of mammalian finger rinse from solution such that they were not able to stimulate the epithelium.

[1] = system: nasal lamellae of Atlantic salmon; assay: Olfactory response to stimuli alone or in combination with 500 mM NaCl (FIGS. 12B-12D); type: in vivo, Atlantic salmon (Salmo salar)
Method: Stimuli were delivered to the olfactory epithelium via a glass capillary tube placed in the inhalant olfactory opening. This tube was connected to a gravity fed tubing system allowing for switching from a background perfusion (charcoal filtered freshwater) to an experimental stimulus while maintaining a flow rate of 6-8 ml/min. Verification of the location of the stimulus delivery tubes and electrode was made by observing responses to a ‘search stimulus’ of […].
Stimuli consisted of CaR agonists (CaCl2, MgCl2, GdCl3, SrCl2 and NaCl (Sigma-Aldrich), control freshwater stimulus (charcoal filtered tap water) and control seawater stimuli (ASW, Ca-free ASW, Divalent free ASW). Stimuli were presented alone or in combination with 500 mM NaCl. Ringers and artificial seawater recipes were obtained from the Biological Bulletin Compendia (all concentrations are in mM) ASW (nAcl 423, KCl 9.0, CaCl2 22.94, MgSO4 25.50, NaHCO3 2.14, pH 8.0); Ca-free ASW (NaCl 436.71, KCl 9.0, MgCl2 22.94, MgSO4, 25.5, NaHCO3 2.14, pH 8.0); Divalent free ASW (NaCl 461.85, KCl 10.73, NAHCO3 2.14, Na2SO4 7.04, pH 8.0); FW Teleost Ringer's (NaCl 111.0, KCl 5.37, Cacl2 1.0, MgSO4, 0.6, HEPES 5.0, pH 7.3).

[2] = system: olfactory epithelium of freshwater adapted juvenile salmon; assay: Extracellular electrical potentials (EEG) from olfactory nerve after bolus stimuli to the olfactory epithelium in distilled water; type: in vivo, Atlantic salmon (Salmo salar); details: for concentration dependence of olfactory nerve impulse: exposure of fish olfactory epithelium
From the text: The present invention provides methods for identifying and/or quantifying the effects of PVCR modulators on olfactory receptor sensing and visa versa. The present invention also includes methods for determining whether a compound is an odorant. When fish are exposed to an odorant (e.g., the odorant binds to olfactory lamellae), the odorant binds to the olfactory epithelium of the fish, which leads to the generation of a nerve impulse. The electric potential of the impulse can be measured using methods known in the art, or those later developed. One example of a method that can be used to measure electric potential is an electroencephalogram, commonly referred to as an EEG. Example 3 describes in detail how to measure nerve impulse of fish, and in particular, as it relates to modulation of the PVCR in the olfactory apparatus of the fish. Briefly, the fish are anaesthetized and placed in V-clamp apparatus where its gills were irrigated continuously with aerated seawater and its nasal lamellae bathed continuously by a stream of distilled water via a tube held in position in the inhalant olfactory opening. The olfactory nerves of the fish were exposed by removal of overlying bony structures. Odorants to be tested can be delivered as boluses to the olfactory epithelium via a 3 way valve where 1 cc of water containing the stimulus was rapidly injected into the tube containing a continuously stream of distilled water. […] The results can be analyzed by computer using compatible software.
as §1
Similarly, exposure of olfactory epithelium to the PVCR agonist Gd^3+ produces responses of a similar magnitude to those evoked by Ca^2+ in a concentration range of 1-10 micromolar. […] These dose response curves (EC50 Gd^+3≦Ca^2+<Mg^2+) are similar to those obtained for PVCR modulated responses in other fish epithelium (flounder urinary bladder NaCl-mediated water transport-see SKCaR application).

[3] = system: shark kidney calcium receptor (SKCaR); assay: FURA-2 ratio imaging fluorescence of HEK cells stably expressing SKCaR; type: cell-based, dogfish (Squalus acanthias); details: 10 mM amino acid; for effect on SKCaR's response to a given Ca^2+ concentration: FIG. 16
Method: Full length recombinant dogfish (Squalus acanthias) shark kidney calcium receptor (SKCaR) was expressed in human embryonic kidney cells using methods described herein. The ability of SKCaR to respond to individual amino acids as well as various mixtures was quantified using FURA-2 ratio imaging fluorescence.
Baseline extracellular Ca^2+ concentration was 0.5 mM. Aliquots of Ca^2+ were added to produce final extracellular concentrations of 2.5 mM, 5 mM, 7.5 mM, 10 mM and 20 mM Ca^2+ with changes in the fluorescence recorded. Note that increases in cell fluorescence were greater in the presence of 10 mM Phe for extracellular Ca^2+ concentrations less than 10 mM.

[4] = 1 mM agonist with 500 mM NaCl, FIG. 12D
[5] = 500 micromolar stimulus, FIG. 11

[Ca+2] [Ca^2+, calcium]
effect on olfactory nerve response to 500 micromolar L-alanine (olfactory epithelium; 5 mM added, FIG. 14 recording #2): complete loss of the corresponding response
effect on response of olfactory epithelium to mammalian finger rinse (olfactory epithelium; 5 mM agonist included): reversibly ablated the response
response to subsequent identical L-alanine stimulus without the agonist (olfactory epithelium; after 5 mM, FIG. 14 recording #3): return of the signal
effect on olfactory response to 500 mM NaCl [1, 4]: significantly reduce the olfactory response
olfactory response in a 500 mM NaCl solution ([1]; 10 mM in 500 mM NaCl, FIG. 12C): identical to that produced by artificial seawater (ASW) exposure
effect on olfactory response produced by 500 mM NaCl ([1]; FIG. 12C, various concentrations in 500 mM NaCl): reduces the olfactory response
olfactory nerve response (EEG activity) ([2]; 1 mM stimulus, FIG. 11): responses in EEG activity
olfactory nerve response (EEG activity) ([2]; 1 mM stimulus, FIG. 11, listed as calcium): existence of an olfactory recording
EC50 ([2]; FIG. 12A, responses normalized to 10 mM Ca^2+, multiple fish, read-out: half maximal excitatory response (EC50)): 1 to 10 µM
concentration dependence of olfactory nerve impulse [2]: concentration-dependent olfactory nerve impulse

[Gd+3] [Gd^3+, gadolinium]
effect on olfactory nerve response to 500 micromolar L-alanine (olfactory epithelium; 50 micromolar added, FIG. 14 recording #7): complete loss of the corresponding response
effect on response of olfactory epithelium to mammalian finger rinse (olfactory epithelium; 50 micromolar agonist included): reversibly ablated the response
effect on response of olfactory epithelium to mammalian finger rinse (olfactory epithelium; 50 micromolar agonist included, listed as gadolinium): reversibly altered
response to subsequent identical L-alanine stimulus without the agonist (olfactory epithelium; after 50 micromolar, FIG. 14 recording #8 vs #6): return of the signal; also recorded: decreased as compared to control
effect on olfactory response to 500 mM NaCl ([1]; 50 micromolar agonist with 500 mM NaCl, FIG. 12D): significantly reduce the olfactory response
olfactory nerve response ([2]; 50 micromolar stimulus, FIG. 11, listed as Gadolinium): existence of an olfactory recording
olfactory nerve response ([2]; 50 micromolar stimulus, FIG. 11, listed as gadolinium): obtained a response
concentration range producing responses of a similar magnitude to those evoked by Ca^2+ ([2]; FIG. 12A): 1 to 10 µM
concentration dependence of olfactory nerve impulse [2]: concentration-dependent olfactory nerve impulse

CC[C@H](C)[C@H](N)C(=O)O [Ile, L-Isoleucine]
effect on SKCaR's response to a given Ca^2+ concentration [3]: increase SKCaR's response

C[C@H](N)C(=O)O [L-alanine]
duration of olfactory nerve response [2, 5]: approximately 2 seconds
olfactory nerve response [2, 5]: large increases in both the firing frequency and amplitude; also recorded: existence of an olfactory recording

[Mg+2] [Mg^2+, magnesium]
effect on olfactory response to 500 mM NaCl [1, 4]: significantly reduce the olfactory response
concentration at which olfactory epithelium responses first occur ([2]; FIG. 12A): 10 to 100 µM
concentration dependence of olfactory nerve impulse [2]: concentration-dependent olfactory nerve impulse

[Cl-].[Na+] [NaCl, sodium chloride]
response to subsequent L-Alanine alone (olfactory epithelium; after 250 mM, FIG. 14 recordings #5 and #10): enhanced response to L-Alanine alone
olfactory response to irrigation of the nasal lamellae ([1]; 500 mM alone, FIG. 12D): large response
olfactory nerve response (EEG activity) ([2]; 250 mM stimulus, FIG. 11): responses in EEG activity; also recorded: existence of an olfactory recording
concentration until which olfactory epithelium is unresponsive ([2]; FIG. 12A): 250 millimolar

N[C@@H](Cc1ccccc1)C(=O)O [Phe, L-Phenylalanine]
effect on SKCaR's response to a given Ca^2+ concentration [3]: increase SKCaR's response
increases in cell fluorescence on addition of extracellular Ca^2+ ([3]; extracellular Ca^2+ less than 10 mM, FIG. 15): greater

[Sr+2] [Sr2+, strontium]
effect on olfactory response to 500 mM NaCl [1, 4]: significantly reduce the olfactory response

neomycin
concentration dependence of olfactory nerve impulse [2]: concentration-dependent olfactory nerve impulse
